Results on 17 compounds are retold here after patent publication US20080132539A1, “Hydroxamic Acid Derivative And Age Generation Inhibitor Containing The Derivative” (priority 2003, published 2008).

The subject of this test is Maillard reaction (lysozyme / fructose, dimer formation). Nature of the test: Maillard reaction-inhibiting effects (lysozyme dimer formation with fructose, SDS-PAGE densitometry). The class given is biochemical. Conditions: 10 mg/mL lysozyme, 200 mM fructose, pH 7.4, 37° C., 4 days, dimer formation inhibition rate. The method, then: This Example examined Maillard reaction-inhibiting effects using, as test compounds, the compounds produced in the above-described Examples and the commercially available substances arginine hydroxamate (Compound No. 111), tyrosine hydroxamate (Compound No. 112), and tryptophan hydroxamate (Compound No. 113). More specifically, 10 mg/mL lysozyme, 200 mM fructose, and each of the above-described test compounds dissolved in a 0.4 mM sodium phosphate buffer (pH 7.4) so as to provide a concentrations of 0.1, 0.3, 1, or 3 mM were incubated at 37° C. for 4 days. After the incubation, the samples were subjected to SDS-PAGE, stained with Coomassie Brilliant Blue R-250, and quantitated for the formed dimmers using a densitometer. The Maillard reaction-inhibiting activity was defined as the dimmer formation inhibition rate of a test compound calculated on the basis that the amount of dimmer is 100% in the absence of the test compound, using, as blank, the amount of dimer in the absence of fructose and the test compound.

Setting [1] is: test compound concentration 0.1 mM.
[2] abbreviates: test compound concentration 0.3 mM.
Where [3] appears, read: test compound concentration 1 mM.
Setting [4] is: test compound concentration 3 mM.

Consider `N[C@@H](CCC(=O)NC1CCCCC1)C(=O)NO` [Compound No. 5, (S)-2-amino-4-(cyclohexylaminocarbonyl)-N-hydroxybutyramide], for which the “Maillard reaction-inhibiting activity (%)” value is −3% under setting [1], 5% under setting [2], 35% under setting [3] and 97% under setting [4].
Regarding `N[C@@H](CCCNC1CCCCC1)C(=O)NO` [Compound No. 27, (S)-2-amino-5-cyclohexylaminopentanoic acid hydroxyamide], the “Maillard reaction-inhibiting activity (%)” value under setting [1] is recorded as 1%, the “Maillard reaction-inhibiting activity (%)” value under setting [2] is reported as 7%, the “Maillard reaction-inhibiting activity (%)” value under setting [3] was determined as 32% and the “Maillard reaction-inhibiting activity (%)” value under setting [4] is given as 100%.
Take `N[C@@H](CCCNC(=O)Cc1ccc([N+](=O)[O-])cc1)C(=O)NO` [Compound No. 16, (S)-2-amino-5-(4-nitrophenylacetylamino)pentanoic acid hydroxyamide]: the “Maillard reaction-inhibiting activity (%)” value is −7% under setting [1], 11% under setting [2], 71% under setting [3] and 98% under setting [4].
`Cc1ccc(CN(CCC[C@H](N)C(=O)NO)Cc2ccc(C)cc2)cc1` [Compound No. 28, (S)-2-amino-5-[bis-(4-methyl-benzyl)amino]pentanoic acid hydroxyamide]: the “Maillard reaction-inhibiting activity (%)” value runs as follows: under setting [1], 100%; under setting [2], 100%; under setting [3], 100%; under setting [4], 100%.
As to `CCCn1c(CC[C@H](N)C(=O)NO)nc2cc(C)c(C)cc21` [Compound No. 94, (S)-2-amino-4-(5,6-dimethyl-1-propyl-1H-benzimidazol-2-yl)-N-hydroxybutyramide], the “Maillard reaction-inhibiting activity (%)” value was 12% under setting [1], 83% under setting [2], 100% under setting [3] and 102% under setting [4].
In the case of `CCCN(CCC)c1ccc(C[C@H](N)C(=O)NO)cc1` [Compound No. 38, (S)-2-amino-3-(4-dipropylamino-1-phenyl)-N-hydroxypropionamide], the “Maillard reaction-inhibiting activity (%)” value under setting [1] was found to be 100%, the “Maillard reaction-inhibiting activity (%)” value under setting [2] is reported as 100%, the “Maillard reaction-inhibiting activity (%)” value under setting [3] was found to be 100% and the “Maillard reaction-inhibiting activity (%)” value under setting [4] is recorded as 100%.
As to `N[C@@H](CCC(=O)NCc1ccccn1)C(=O)NO` [Compound No. 7, (S)-2-amino-4-(pyridin-2-ylmethylaminocarbonyl)-N-hydroxybutyramide], the “Maillard reaction-inhibiting activity (%)” value is, setting by setting: under setting [1], −3%; under setting [2], −4%; under setting [3], 13%; under setting [4], 72%.
Taken in the same sequence, the figures for `CCCCC(=O)Nc1ccc(C[C@H](N)C(=O)NO)cc1` [Compound No. 31, (S)-2-amino-3-(4-valeroylaminophenyl)-N-hydroxypropionamide] were 29%, 72%, 100% and 100%.
For `CC(C)(C)c1ccc(Cn2cc(CC(N)C(=O)NO)c3ccccc32)cc1` (racemic) [Compound No. 106, (RS)-2-amino-3-[1-(4-t-butylbenzyl)-1H-indol-3-yl]-N-hydroxypropionamide], the “Maillard reaction-inhibiting activity (%)” value under setting [1] is reported as 94%, the “Maillard reaction-inhibiting activity (%)” value under setting [2] stood at 95%, the “Maillard reaction-inhibiting activity (%)” value under setting [3] worked out at 97% and the “Maillard reaction-inhibiting activity (%)” value under setting [4] amounted to 95%.
Consider `N[C@@H](CCc1nc2ccccc2n1C1CCOCC1)C(=O)NO` [Compound No. 76, (S)-2-amino-N-hydroxy-4-[1-(tetrahydropyran-4-yl)-1H-benzimidazol-2-yl]butyramide], for which the “Maillard reaction-inhibiting activity (%)” value was found to be 13% under setting [1], 65% under setting [2], 95% under setting [3] and 98% under setting [4].
As for `CC(C)Cn1c(CC[C@H](N)C(=O)NO)nc2ccccc21` [Compound No. 72, (S)-2-amino-N-hydroxy-4-(1-isobutyl-1H-benzimidazol-2-yl)butyramide], the “Maillard reaction-inhibiting activity (%)” value runs as follows: under setting [1], 53%; under setting [2], 94%; under setting [3], 100%; under setting [4], 101%.
On the same counts, the results for `CCCCCn1cc(C[C@@H](N)C(=O)NO)c2ccccc21` [Compound No. 110, (R)-2-amino-3-(1-pentyl-1H-indol-3-yl)-N-hydroxypropionamide] are 96%, 103%, 101% and 101%.
As to `N[C@@H](CCCNC(=O)c1ccc([N+](=O)[O-])cc1)C(=O)NO` [Compound No. 15, (S)-2-amino-5-(4-nitrobenzoylamino)pentanoic acid hydroxyamide], the “Maillard reaction-inhibiting activity (%)” value is on record as −12% under setting [1], −2% under setting [2], 43% under setting [3] and 98% under setting [4].
On to `CC(C)(C)Cn1c(CC[C@H](N)C(=O)NO)nc2ccccc21` [Compound No. 71, (S)-2-amino-N-hydroxy-4-[1-(2,2-dimethylpropyl)-1H-benzimidazol-2-yl]butyramide], for which the “Maillard reaction-inhibiting activity (%)” value reads like this: under setting [1], 71%; under setting [2], 97%; under setting [3], 98%; under setting [4], 99%.
On to `N[C@@H](Cc1ccc(NC(=O)Cc2ccc(F)cc2)cc1)C(=O)NO` [Compound No. 33, (S)-2-amino-3-{4-[2-(4-fluorophenyl)acetylamino]-phenyl}-N-hydroxypropionamide], for which the “Maillard reaction-inhibiting activity (%)” value came out at 57% under setting [1], 93% under setting [2], 98% under setting [3] and 102% under setting [4].
Turning to `CC(C)(C)C(=O)Nc1ccc(C[C@H](N)C(=O)NO)cc1` [Compound No. 32, (S)-2-amino-3-(4-pivaloylaminophenyl)-N-hydroxypropionamide], the “Maillard reaction-inhibiting activity (%)” value by setting is: under setting [1], 23%; under setting [2], 50%; under setting [3], 89%; under setting [4], 102%.
`CC(C)(C)c1ccc(COc2ccc(C[C@H](N)C(=O)NO)cc2)cc1` [Compound No. 99, (S)-2-amino-3-[4-(4-t-butylbenzyloxy)phenyl]-N-hydroxypropionamide]: the “Maillard reaction-inhibiting activity (%)” value is, setting by setting: under setting [1], 95%; under setting [2], 95%; under setting [3], 99%; under setting [4], 101%.
